Measurements reported in patent US4532254A, “Inhibitor of aldose reductase” (Kaken Pharmaceutical Co., Ltd., priority 1983, dated 1985).
Like-named read-outs stand apart in the source and are kept apart here.

Legend:
bovine lens AR = target: T1, bovine lens AR (Bos taurus, UniProt P16116); assay: Inhibition of bovine lens aldose reductase (BLAR), NADPH oxidation at 340 nm; format: biochemical; conditions: for inhibition at 10 µM: 10^-5 M; for inhibition at 10 µM / inhibition at 1 µM / inhibition at 0.1 µM: read-out: Inhibition against enzyme activity (%); for inhibition at 1 µM: 10^-6 M; for inhibition at 0.1 µM: 10^-7 M; for IC50: Table 2, IC50 in M multiplied by 10^6
T1 construct: Bovine eyes were obtained from a local abattoir, and the lenses were removed and frozen until needed; from tissue; host or cells: bovine lens from a local abattoir; enzyme purified by ammonium sulfate, DEAE-Sephacel, Matrex gel red A and Sephadex G-75
Protocol: (§1) The inhibitory activities against AR of LARI-1, LARI-2, LARI-3 and LARI-4 were determined according to the following method.
(§2) In Recipe Example, the followings were used. NADPH was purchased from the Oriental Yeast Co., Ltd. DL-Glyceraldehyde and quercitrin were purchased from Nakarai Chemicals, Ltd. DEAE-Sephacel and Sephadex G-75 were purchased from Pharmacia Fine Chemicals. Matrex gel red A was purchased from the Amicon Co. All other chemicals were of the highest grade commercially available.
(§3) Rat lenses were removed from eyes of rats of the Wistar strain weighing 200 to 250 g. Bovine eyes were obtained from a local abattoir, and the lenses were removed and frozen until needed.
(§4) Usually a 10^-3 M solution was prepared and diluted to the desired concentrations with propylene glycol. To the reaction mixture were added aliquots of the diluted solution to yield concentrations of 10^-8 M to 10^-5 M and a propylene glycol concentration of 1%.
(§5) AR assays were conducted according to the procedure of Hayman and Kinoshita (J. Biol. Chem. 240, p. 877 (1965)), except for the addition of ammonium sulfate instead of lithium sulfate to the reaction mixture. Assays were performed at 30° C. in 0.1M sodium phosphate buffer (pH 6.2) containing 0.4M ammonium sulfate, 10 mM DL-glyceraldehyde, 0.16 mM NADPH and the enzyme (0.010 to 0.016 unit) in a total volume of 1.0 ml. The effects of inhibitors on the enzyme activity were determined in the reaction mixture containing 10 μl. of each inhibitor solution at the desired concentrations. The blank reference to correct for non-specific reduction of NADPH contained all of the above compounds except DL-glyceraldehyde. The reaction was initiated by the addition of DL-glyceraldehyde, and the rate of NADPH oxidation was followed by recording the decrease in absorbance at 340 nm on a Gilford model 250 spectrophotometer.
(§6) BLAR and RLAR were purified according to the method of Inagaki et al (Archs Biochem. Biophys. 216, p. 337 (1982)). Briefly, a 40 to 75% ammonium sulfate fraction was subjected to chromatography on DEAE-Sephacel, followed by two column chromatographic steps, i.e. affinity chromatography using Matrex gel red A and gel filtration on Sephadex G-75.
(§7) The concentration of inhibitor required for eliciting a 50% inhibition (IC50) was determined according to the method of Kador et al (Docum. Ophthal. Proc. Series 18, p. 117 (1979)).

rat lens AR = target: T2, rat lens AR (Rattus norvegicus, UniProt P07943); assay: Inhibition of rat lens aldose reductase (RLAR), NADPH oxidation at 340 nm; format: biochemical, rat (Wistar strain); conditions: for inhibition at 10 µM: 10^-5 M; for inhibition at 10 µM / inhibition at 1 µM / inhibition at 0.1 µM: read-out: Inhibition against enzyme activity (%); for inhibition at 1 µM: 10^-6 M; for inhibition at 0.1 µM: 10^-7 M
T2 construct: Rat lenses were removed from eyes of rats of the Wistar strain; from tissue; host or cells: lens of Wistar rats; enzyme purified by ammonium sulfate, DEAE-Sephacel, Matrex gel red A and Sephadex G-75
Protocol: as §1, §2, §3, §4, §5, §6, §7

[1] = Table 2, IC50 in M multiplied by 10^6, read-out: IC50 (M) × 10^6
[2] = read-out: IC50 (inhibition of RLAR)

inhibition at 10 µM (bovine lens AR) [%] | inhibition at 1 µM (bovine lens AR) [%] | inhibition at 0.1 µM (bovine lens AR) [%] | IC50 (bovine lens AR) [nM] | inhibition at 10 µM (rat lens AR) [%] | inhibition at 1 µM (rat lens AR) [%] | inhibition at 0.1 µM (rat lens AR) [%] | IC50 (rat lens AR; [1]) [M] | IC50 (rat lens AR; [2]) [M] | Compound
94 | 80 | 24 | 290 | 91 | 81 | 44 | 1.6e-07 | 1.6e-07 | COc1c(OC)c(OC)c2c(=O)cc(-c3ccc(O)cc3)oc2c1OC [LARI-2, 4'-hydroxy-5,6,7,8-tetramethoxyflavone]
100 | 91 | 35 | 180 | 96 | 92 | 73 | 3.6e-08 | 3.6e-08 | COc1c(O)c(OC)c2c(=O)cc(-c3ccc(O)c(O)c3)oc2c1OC [LARI-1, 3',4',6-trihydroxy-5,7,8-trimethoxyflavone]
95 | 70 | 18 | 420 | 92 | 74 | 36 | 2.5e-07 | 2.5e-07 | COc1c(O)c(OC)c2c(=O)cc(-c3ccc(O)cc3)oc2c1OC [LARI-3, 4',6-dihydroxy-5,7,8-trimethoxyflavone]
